# Molecular target: T1, human TLR8 (Homo sapiens, UniProt Q9NR97)
# T1 sequence (Q9NR97 27-1041): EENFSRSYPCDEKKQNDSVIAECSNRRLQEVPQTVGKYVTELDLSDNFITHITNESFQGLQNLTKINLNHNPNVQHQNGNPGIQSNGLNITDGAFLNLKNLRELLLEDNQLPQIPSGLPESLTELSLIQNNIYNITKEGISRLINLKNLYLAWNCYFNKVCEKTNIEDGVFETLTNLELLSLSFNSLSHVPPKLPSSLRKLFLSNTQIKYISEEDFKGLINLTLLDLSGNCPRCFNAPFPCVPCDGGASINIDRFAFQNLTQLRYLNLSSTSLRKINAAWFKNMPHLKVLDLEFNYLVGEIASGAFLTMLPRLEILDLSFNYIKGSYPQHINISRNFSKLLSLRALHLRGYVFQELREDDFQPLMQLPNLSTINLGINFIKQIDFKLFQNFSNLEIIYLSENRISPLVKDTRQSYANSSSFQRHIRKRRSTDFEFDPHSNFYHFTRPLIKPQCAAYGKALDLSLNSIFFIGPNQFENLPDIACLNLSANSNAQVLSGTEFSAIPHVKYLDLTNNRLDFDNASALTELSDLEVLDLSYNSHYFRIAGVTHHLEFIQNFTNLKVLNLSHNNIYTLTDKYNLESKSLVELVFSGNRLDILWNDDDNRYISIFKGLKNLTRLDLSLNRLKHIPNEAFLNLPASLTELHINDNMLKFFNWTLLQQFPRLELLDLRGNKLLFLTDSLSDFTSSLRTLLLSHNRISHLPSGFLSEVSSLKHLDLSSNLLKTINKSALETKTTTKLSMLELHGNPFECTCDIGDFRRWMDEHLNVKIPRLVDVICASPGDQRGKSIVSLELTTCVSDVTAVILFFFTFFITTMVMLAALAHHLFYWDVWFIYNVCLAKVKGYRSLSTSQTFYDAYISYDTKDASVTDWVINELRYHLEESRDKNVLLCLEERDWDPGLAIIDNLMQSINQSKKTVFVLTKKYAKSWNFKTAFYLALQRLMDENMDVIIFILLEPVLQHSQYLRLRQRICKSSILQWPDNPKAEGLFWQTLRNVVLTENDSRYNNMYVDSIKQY
# Assay: HEK293-Blue-hTLR-8 cells assay (SEAP reporter, R848 stimulation)
# Type: cell-based
# Conditions: HEK293-Blue-hTLR8 cells, R848 ligand, 20 hrs incubation
# Description: The following tests were carried out in order to determine the activity of the compounds of formula (I) in HEK293-Blue-hTLR-7/8/9 cells assay.
# HEK293-Blue-hTLR-8 Cells Assay:
# A stable HEK293-Blue-hTLR-8 cell line was purchased from InvivoGen (Cat. #: hkb-htlr8, San Diego, Calif., USA). These cells were originally designed for studying the stimulation of human TLR8 by monitoring the activation of NF-κB. A SEAP (secreted embryonic alkaline phosphatase) reporter gene was placed under the control of the IFN-β minimal promoter fused to five NF-κB and AP-1-binding sites. The SEAP was induced by activating NF-κB and AP-1 via stimulating HEK-Blue hTLR8 cells with TLR8 ligands. Therefore the reporter expression was declined by TLR8 antagonist under the stimulation of a ligand, such as R848, for incubation of 20 hrs. The cell culture supernatant SEAP reporter activity was determined using QUANTI-Blue™ kit (Cat. #: rep-qb1, Invivogen, San Diego, Ca, USA) at a wavelength of 640 nm, a detection medium that turns purple or blue in the presence of alkaline phosphatase.
# HEK293-Blue-hTLR8 cells were incubated at a density of 250,000˜450,000 cells/mL in a volume of 170 μL in a 96-well plate in Dulbecco's Modified Eagle's medium (DMEM) containing 4.5 g/L glucose, 50 U/mL penicillin, […], […], 2 mM L-glutamine, 10% (v/v) heat-inactivated fetal bovine serum with addition of 20 μL test compound in a serial dilution in the presence of final DMSO at 1% and 10 μL of 60 uM R848 in above DMEM, perform incubation under 37° C. in a CO2 incubator for 20 hrs. Then 20 μL of the supernatant from each well was incubated with 180 μL Quanti-blue substrate solution at 37° C. for 2 hrs and the absorbance was read at 620-655 nm using a spectrophotometer. The signalling pathway that TLR8 activation leads to downstream NF-κB activation has been widely accepted, and therefore similar reporter assay was modified for evaluating TLR8 antagonist.
row,SMILES,IC50
1,"FC(F)(F)c1ccc(N2CC(CN3CCC4(CCNCC4)CC3)C3(CC3)C2)c2nccnc12 (centres unmarked) [Example 31, 3-[[5-[8-(Trifluoromethyl)quinoxalin-5-yl]-5-azaspiro[2.4]heptan-7-yl]methyl]-3,9-diazaspiro[5.5]undecane]",418 nM
2,"C[C@H]1CN(c2ccc(C#N)c3nccnc23)C[C@@H]1CN1CCC2(CCNCC2)CC1 [Example 17, 8-[(3S,4R)-3-(3,9-diazaspiro[5.5]undecan-3-ylmethyl)-4-methyl-pyrrolidin-1-yl]quinoxaline-5-carbonitrile]",65 nM
3,"N#Cc1ccc(N2C[C@H](CN3CC4(CCNCC4)C3)[C@@H](C(F)(F)F)C2)c2nccnc12 [Example 48, 8-[(3S,4R)-3-(2,7-diazaspiro[3.5]nonan-2-ylmethyl)-4-(trifluoromethyl)pyrrolidin-1-yl]quinoxaline-5-carbonitrile]",37 nM
4,"CNCC1CCN(C[C@H]2CN(c3ccc(C#N)c4nccnc34)C[C@@H]2C(F)(F)F)CC1 [Example 81, 8-[(3S,4R)-3-[[4-(methylaminomethyl)-1-piperidyl]methyl]-4-(trifluoromethyl)pyrrolidin-1-yl]quinoxaline-5-carbonitrile]",25 nM
5,"N#Cc1ccc(N2C[C@H](CN3CCCC(F)(CN)C3)[C@@H](C(F)(F)F)C2)c2nccnc12 (stereo partly drawn) [Example 78, 8-[(3S,4R)-3-[[3-(aminomethyl)-3-fluoro-1-piperidyl]methyl]-4-(trifluoromethyl)pyrrolidin-1-yl]quinoxaline-5-carbonitrile]",30 nM
6,"N#Cc1ccc(N2C[C@H](CN3CCC4(CCNC4)C3)[C@@H](C(F)(F)F)C2)c2cccnc12 (stereo partly drawn) [Example 9, 5-[(3S,4R)-3-(2,7-diazaspiro[4.4]nonan-2-ylmethyl)-4-(trifluoromethyl)pyrrolidin-1-yl]quinoline-8-carbonitrile]",47 nM
7,"N#Cc1ccc(N2C[C@H](CN3CCNCC3)[C@@H](C(F)(F)F)C2)c2nccnc12 [Example 59, 8-[(3S,4R)-3-(Piperazin-1-ylmethyl)-4-(trifluoromethyl)pyrrolidin-1-yl]quinoxaline-5-carbonitrile]",14 nM
8,"N#Cc1ccc(N2CC(CN3CCC4(CCCNC4)CC3)C3(CC3)C2)c2nccnc12 (centres unmarked) [Example 13, 8-[7-(2,9-Diazaspiro[5.5]undecan-9-ylmethyl)-5-azaspiro[2.4]heptan-5-yl]quinoxaline-5-carbonitrile]",50 nM
9,"C[C@H]1CN(c2ccc(C#N)c3ncccc23)C[C@@H]1CN1CCC2(CCNCC2)CC1 [Example 23, 5-[(3S,4R)-3-(3,9-diazaspiro[5.5]undecan-3-ylmethyl)-4-methyl-pyrrolidin-1-yl]quinoline-8-carbonitrile]",266 nM
10,"N#Cc1ccc(N2C[C@H](CN3CCC(N4CCCCC4)CC3)[C@@H](C(F)(F)F)C2)c2nccnc12 [Example 61, 8-[(3S,4R)-3-[[4-(1-Piperidyl)-1-piperidyl]methyl]-4-(trifluoromethyl)pyrrolidin-1-yl]quinoxaline-5-carbonitrile]",23 nM
11,C[C@@H]1CN(c2ccc(C(F)(F)F)c3nccnc23)C[C@H]1CNC1CCCNCC1 (some centres unmarked) [Example 40],742 nM
12,"FC(F)(F)c1ccc(N2C[C@@H](CN3CCC4(CCNC4)C3)[C@H](C(F)(F)F)C2)c2nccnc12 (relative stereo) [Example 19, 5-[Trans-3-(2,7-diazaspiro[4.4]nonan-2-ylmethyl)-4-(trifluoromethyl)pyrrolidin-1-yl]-8-(trifluoromethyl)quinoxaline]",253 nM
13,"N#Cc1ccc(N2C[C@H](CN3CC4CNCC4C3)[C@@H](C(F)(F)F)C2)c2nccnc12 (stereo partly drawn) [Example 76, 8-[(3S,4R)-3-(2,3,3a,4,6,6a-hexahydro-1H-pyrrolo[3,4-c]pyrrol-5-ylmethyl)-4-(trifluoromethyl)pyrrolidin-1-yl]quinoxaline-5-carbonitrile]",41 nM
14,"N#Cc1ccc(N2C[C@H](CN3CCC(CCN)CC3)[C@@H](C(F)(F)F)C2)c2nccnc12 [Example 79, 8-[(3S,4R)-3-[[4-(2-aminoethyl)-1-piperidyl]methyl]-4-(trifluoromethyl)pyrrolidin-1-yl]quinoxaline-5-carbonitrile]",102 nM
